A short description of series [1]: Storage experiments in the presence of moisture, heat and light load (wet-granulated tablets). To be noted: in the wet-granulated tablet of Comparative Example 1. The class given is physicochemical. An excerpt:
The tablets obtained were subjected to storage experiments carried out in the presence of moisture and heat as well as light load.

Series [2] can be described thus: Clinical investigations: half life in blood and relative bioavailability. In kind it is in vivo, human. To be noted: for half-life: human, blood, read-out: half life measured in the blood (converted).
The conditions of series [3]: antiarrhythmic reference drugs; Welling et al. 1985; cited from earlier work.

Where a name gives a salt, the structure may show the parent alone. Read-outs that look alike come from different tables or passages of the source.

The term half-life denotes the time needed for the level to fall by half in the phase considered. As a reminder, the bioavailability is the share of a dose that reaches the circulation, judged against a reference dose that is usually intravenous.

For the compound `O=C1O[C@H]([C@@H](O)CO)C(O)=C1O` [ascorbic acid], in series [1], the “prevention of decomposition process by antioxidant” value was “could not be prevented by ascorbic acid”.
On to `Cc1cccc(C)c1NNC(=N)N(C)C` [1-(2,6-Dimethylphenyl)-4,4'-dimethylaminoguanidine hydrochloride], for which the relative bioavailability result in series [2] (composition according to the invention, clinical) is recorded as “about 80%”. Further, the values for the half-life in series [2] (composition according to the invention) and in series [2] (injectable composition containing the same active ingredient) were 3.2 h and 2.4 h, respectively.
For `C=C[C@H]1C[N@@]2CC[C@H]1C[C@@H]2[C@@H](O)c1ccnc2ccc(OC)cc12` [quinidine], the bioavailability in series [3] is given as 40 to 70%.

These data come from patent US5322698A, “Process for the preparation of a tablet or dragee composition containing a heat-, light- and moisture-sensitive active ingredient having monoclinic crystal structure” (priority 1990, dated 1994).
